{"source": "paper PMC9468151", "about": "“Identification of a binding site on soluble RANKL that can be targeted to inhibit soluble RANK-RANKL interactions and treat osteoporosis” (Nature Communications, 2022)", "key": {"[1]": {"system": "mRANKL induced osteoclastogenesis", "test": "mRANKL induced osteoclastogenesis assay", "assay_type": "cell-based, mouse", "conditions": "for OC inhibitory ratio, mRANKL induced (fig. 3d IC50 curve data): replicates"}, "OVX mice [2]": {"system": "OVX mice", "test": "Three-point bending test of femur (biomechanical strength)", "assay_type": "in vivo, mouse", "conditions": "OVX mice + S3-15, individual animals", "protocol": "The weight of rats or mice were recorded every week in the treatment period. After treatment, the rats were harvested, the serum, heart, liver, spleen, lung, kidney, thymus, and femurs were all collected and subjected to subsequent analysis. The right femurs of rats or mice were cleaned excess soft tissue, fixed in 10% formalin, and processed them for microcomputed tomography (micro-CT) analysis. Left mice femurs were collected and excarnate for biomechanical strength testing. Mice peripheral blood were as well as collected for flow cytometry analyzing."}, "OVX mice [3]": {"system": "OVX mice", "test": "Splenic lymphocyte transformation test", "assay_type": "in vivo, mouse", "set-up": "key: OD (MTT) of stimulated minus unstimulated cells", "conditions": "OVX mice + S3-15 4 weeks, individual animals", "protocol": "Spleens were aseptically isolated from sham group, OVX group and OVX treatment group after treating S3-15 for 4 weeks in a clean bench (II Class biosafety Cabinets, Escolifesciences, Singapore). Splenic single cell suspensions were obtained by gentle squeezing spleen tissue by injecting 2 mL cold Hank’s solution. Splenic cells were filtered through 40 μm nylon filters (BD Biosciences, Darmstadt, Germany), and centrifuged at 1400 × g for 10 min. Then cells were resuspended in 1640 completed medium (containing 10%FBS, 1% penicillin/streptomycin, 1% glutamine (200 mmol/L) and 5 × 10^−5 mol/L 2-mercaptoethanol) with a concentration of 5 × 10^6 cells/mL and seeded 100 μL into 96-well plates. Two wells for each mouse, and one well stimulated with 50 μL […] (Sigma-Aldrich®, Germany) solution (working concentration 7.5 μg/mL in 1640 completed medium), another well added 50 μL 1640 complete medium as a control. After that, the plates were incubated at 37 °C in a CO2 incubator at 5% CO2 for 72 h. After stimulation, cells were measured by MTT method. Stimulation of cell proliferation ability was determined as the absorbance (OD) value of stimulated minus unstimulated cells for each cell sample."}, "mature osteoclasts": {"system": "mature osteoclasts", "test": "Osteoclasts apoptotic activity assay", "assay_type": "cell-based, mouse", "protocol": "Mature osteoclasts were generated according to “Primary cultures of BMMs and osteoclastogenesis assay”. Mature osteoclasts were treated with or without compounds for 24 h[53]. At the end of incubation, cells were fixed with 4% paraformaldehyde and applied TRAP-staining. Apoptosis and cell death was measured by in situ fluorescence staining with AnnexinV-FITC (Beyotime Biotechnology) and prodidium iodide or DAPI staining flowing by their instructions. TRAP-positive cells, Annexin V, PI, and DAPI were visualized by Leica fluorescence microscopic."}, "OVX mice [4]": {"system": "OVX mice", "test": "Mice peripheral blood T lymphocyte subsets analysis", "assay_type": "in vivo, mouse", "conditions": "OVX mice + S3-15 4 weeks, individual animals", "text": "In order to study the effect of S3-15 on the immune system, after 4 weeks of S3-15 treatment, orbital venous blood with EDTA-anticoagulated was collected for T lymphocyte subsets analysis in osteoporosis mice. We used flow cytometric to determinate T lymphocyte subsets according to the guidelines for Flow Cytometric of Beckman Coulter, FC500. Cells were stained according to manufacturer’s instruction of PE-Cyanine7 anti-Human CD8a and PE anti-Human CD4 antibodies (Tonbo Biosciences). Data analyzing was performed by using CXP software (Beckman Coulter, Supplementary Fig. 9)."}}, "note": "Several values for one entry are separate records, joined by “and”; a condition that tells them apart may be missing. Equal values may be shown once."}
{"compound": "CC(=O)/C(=N\\Nc1ccccc1C(=O)O)C(=O)Nc1ccccn1", "note": "[S3-15]", "values": [{"measurement": "OC inhibitory ratio, mRANKL induced (fig. 3d IC50 curve data)", "setting": "[1]; 0.0023464 μM", "value": "-1.8319 and -1.185 and 3.987"}, {"measurement": "OC inhibitory ratio, mRANKL induced (fig. 3d IC50 curve data)", "setting": "[1]; 0.00774313 μM", "value": "-0.2155 and 3.341 and 0.431"}, {"measurement": "OC inhibitory ratio, mRANKL induced (fig. 3d IC50 curve data)", "setting": "[1]; 0.0255523 μM", "value": "1.724 and 9.483 and -1.8319"}, {"measurement": "OC inhibitory ratio, mRANKL induced (fig. 3d IC50 curve data)", "setting": "[1]; 0.0843226 μM", "value": "10.4526 and 18.2112 and 10.1293"}, {"measurement": "OC inhibitory ratio, mRANKL induced (fig. 3d IC50 curve data)", "setting": "[1]; 0.278265 μM", "value": "19.8276 and 9.806 and 12.7155"}, {"measurement": "OC inhibitory ratio, mRANKL induced (fig. 3d IC50 curve data)", "setting": "[1]; 0.918274 μM", "value": "19.8276 and 9.806 and 12.7155"}, {"measurement": "OC inhibitory ratio, mRANKL induced (fig. 3d IC50 curve data)", "setting": "[1]; 3.0303 μM", "value": "46.6595 (2×) and 50.5388"}, {"measurement": "OC inhibitory ratio, mRANKL induced (fig. 3d IC50 curve data)", "setting": "[1]; 10 μM", "value": "62.8233 (2×) and 61.5302"}, {"measurement": "OC inhibitory ratio, mRANKL induced (fig. 3d IC50 curve data)", "setting": "[1]; 33 μM", "value": "90.3017 and 88.3621 and 89.6552"}, {"measurement": "IC50", "setting": "[1]; Mus musculus, +mRANKL", "value": 4.14, "unit": "µM"}, {"measurement": "Femur ultimate load", "setting": "OVX mice [2]", "value": "16.2764 N and 16.6572 N and 19.3534 N and 19.5584 N and 18.4846 N and 18.452 N and 16.2074 N and 13.318 N"}, {"measurement": "Spleen lymphocyte transforming index", "setting": "OVX mice [3]", "value": "0.337 and 0.404 and 0.3367 and 0.4323 and 0.2993 and 0.3783 and 0.2337 and 0.316"}, {"measurement": "EC50", "setting": "mature osteoclasts; Mus musculus, Osteoclast, 24 h treatment, read-out: EC50, apoptosis of mature osteoclasts", "value": 0.55, "unit": "µM"}, {"measurement": "dead osteoclast quantification (fig. 6f)", "setting": "mature osteoclasts; mature osteoclasts, vehicle 41, 55, 67", "value": "227 and 290 and 265"}, {"measurement": "CD3+, % in peripheral lymphocyte", "setting": "OVX mice [4]", "value": "36.27% and 37.35% and 37.5% and 36.96% and 36.85% and 38.5% and 35.97% and 34.6%"}, {"measurement": "CD3+CD4+, % in CD3+ T cell", "setting": "OVX mice [4]", "value": "61.95% and 60.18% and 56.07% and 64.9% and 64.44% and 61.9% and 58.71% and 64.19%"}, {"measurement": "CD3+CD4+, % in peripheral lymphocyte", "setting": "OVX mice [4]", "value": "22.2% and 22.32% and 20.69% and 23.69% and 23.71% and 23.61% and 23.29% and 21.4%"}, {"measurement": "CD3+CD8+, % in CD3+ T cell", "setting": "OVX mice [4]", "value": "30.94% and 33.61% and 35.99% and 30.67% and 29.41% and 32.61% and 35.04% and 29.24%"}, {"measurement": "CD3+CD8+, % in peripheral lymphocyte", "setting": "OVX mice [4]", "value": "11.41% and 12.7% and 13.52% and 11.4% and 10.94% and 12.69% and 10.21% and 10.64%"}, {"measurement": "CD4+, % in peripheral lymphocyte", "setting": "OVX mice [4]", "value": "22.3% and 22.29% and 20.64% and 23.66% and 23.37% and 23.65% and 23.23% and 21.42%"}, {"measurement": "CD8+, % in peripheral lymphocyte", "setting": "OVX mice [4]", "value": "11.28% and 12.51% and 13.34% and 11.29% and 10.72% and 12.52% and 9.72% and 10.53%"}, {"measurement": "CD4+/CD8+ in CD3+ T cell", "setting": "OVX mice [4]; ratio", "value": "2.002 and 1.791 and 1.558 and 2.116 and 2.191 and 1.898 and 1.676 and 2.195"}, {"measurement": "CD4+/CD8+ in peripheral lymphocyte", "setting": "OVX mice [4]; ratio", "value": "1.946 and 1.757 and 1.53 and 2.078 (2×) and 2.167 and 1.861 and 2.011"}]}
